Data as given in ChEMBL document CHEMBL1201862, “PubChem BioAssay data set” (2004).
The source made the active and inactive calls.

How the values were obtained:
[1] = rise of 4N DNA cells, HeLa – IC50, dose response (AID 1117351); assay type: functional, cell-based
[2] = IC50 of insulin release inhibition, rat insulinoma INS-1E line, 5 mM glucose, cell-based (AID 1117331); assay type: functional
[3] = rise of 2N DNA cells, HeLa – IC50, dose response (AID 1117349); assay type: functional, cell-based
Protein RecA = target: T1, Protein RecA (Mycobacterium tuberculosis, UniProt P9WHJ3); assay: Fluorescence Cell-Free Homogeneous Dose Retest to Identify Inhibitors of RecA-Intein Splicing Activity. [Related pubchem assays (depositor defined):AID2097, AID2223, AID489010, AID492950]; assay type: functional
T1 sequence (P9WHJ3 whole entry): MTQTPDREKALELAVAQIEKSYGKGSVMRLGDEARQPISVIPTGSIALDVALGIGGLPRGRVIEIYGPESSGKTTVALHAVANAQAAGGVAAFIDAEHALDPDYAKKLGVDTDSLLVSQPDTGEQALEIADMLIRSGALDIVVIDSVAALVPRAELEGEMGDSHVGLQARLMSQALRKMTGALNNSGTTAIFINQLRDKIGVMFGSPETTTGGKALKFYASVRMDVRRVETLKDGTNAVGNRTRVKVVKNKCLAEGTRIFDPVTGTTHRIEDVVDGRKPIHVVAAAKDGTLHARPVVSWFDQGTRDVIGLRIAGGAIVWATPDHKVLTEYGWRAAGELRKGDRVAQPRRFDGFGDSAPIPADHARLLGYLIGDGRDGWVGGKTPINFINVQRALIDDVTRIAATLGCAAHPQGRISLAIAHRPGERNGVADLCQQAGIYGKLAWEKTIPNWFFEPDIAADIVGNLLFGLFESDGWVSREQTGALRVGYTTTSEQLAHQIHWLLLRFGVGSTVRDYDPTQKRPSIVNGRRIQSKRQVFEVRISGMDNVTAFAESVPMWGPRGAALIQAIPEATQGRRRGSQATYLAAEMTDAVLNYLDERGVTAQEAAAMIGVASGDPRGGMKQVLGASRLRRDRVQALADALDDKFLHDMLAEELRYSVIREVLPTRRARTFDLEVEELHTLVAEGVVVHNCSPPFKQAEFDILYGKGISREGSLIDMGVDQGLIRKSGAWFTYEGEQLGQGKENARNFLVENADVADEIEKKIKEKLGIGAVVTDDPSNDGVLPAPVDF

[4] = M. tuberculosis H37Rv growth inhibitors, H37Rv strain (AID 1626); assay type: functional
[5] = target: T2, Mannose-6-phosphate isomerase (Homo sapiens, UniProt P34949); assay: MPI inhibition at elevated mannose 6-phosphate – biochemical, fluorescence intensity, high mannose 6-phosphate, primary screen (AID 1220)
T2 sequence (P34949 whole entry): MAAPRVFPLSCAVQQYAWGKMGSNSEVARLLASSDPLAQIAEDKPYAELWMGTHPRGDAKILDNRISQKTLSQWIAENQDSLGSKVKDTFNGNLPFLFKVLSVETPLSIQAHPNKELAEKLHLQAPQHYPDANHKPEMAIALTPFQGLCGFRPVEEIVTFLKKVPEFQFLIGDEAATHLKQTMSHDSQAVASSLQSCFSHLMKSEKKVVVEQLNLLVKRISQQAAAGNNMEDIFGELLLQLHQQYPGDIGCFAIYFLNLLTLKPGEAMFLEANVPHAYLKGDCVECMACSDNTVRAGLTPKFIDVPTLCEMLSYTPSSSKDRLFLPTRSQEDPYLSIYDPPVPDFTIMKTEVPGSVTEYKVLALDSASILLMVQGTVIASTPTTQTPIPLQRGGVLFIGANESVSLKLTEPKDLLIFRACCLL

[6] = antiviral protection against BTV-induced cell death – arbovirus, BSR cells, confirmation (AID 1250); assay type: functional;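 note: protection from viral cytopathic effect measured as cell viability by ATP luminescence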
[7] = target: Peroxisome proliferator-activated receptor gamma/Nuclear receptor corepressor 2 (Homo sapiens, UniProt P37231+Q9Y618); assay: Counterscreen for NR2E3 inverse agonists: TR-FRET-based biochemical high throughput dose response assay to identify inverse agonists of the interaction between peroxisome proliferator-activated receptor gamma (PPARg) and nuclear receptor co-repressor 2 (NCOR2).; assay type: functional
[8] = target: Photoreceptor-specific nuclear receptor (Homo sapiens, UniProt Q9Y5X4); assay: ligands suppressing NR2E3 nuclear receptor activity – biochemical, TR-FRET, dose response (AID 463256); assay type: functional
Cytochrome P450 2C19 = Cytochrome P450 2C19 (Homo sapiens, UniProt P33261); assay: qHTS Assay for Inhibitors and Substrates of Cytochrome P450 2C19. [Related pubchem assays: 410 ]; assay type: ADME; conditions: read-out: Potency
Bcl-2-related protein A1 [9] = target: T3, Bcl-2-related protein A1 (Mus musculus, UniProt Q07440); assay: small-molecule antagonists of Bfl-1/BH3 interaction – biochemical, TR-FRET, mouse Bfl-1, confirmation (AID 621);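 note: TR-FRET binding of GST-Bfl-1 to FITC-labelled Bid peptide via terbium antibody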
T3 sequence (Q07440 whole entry): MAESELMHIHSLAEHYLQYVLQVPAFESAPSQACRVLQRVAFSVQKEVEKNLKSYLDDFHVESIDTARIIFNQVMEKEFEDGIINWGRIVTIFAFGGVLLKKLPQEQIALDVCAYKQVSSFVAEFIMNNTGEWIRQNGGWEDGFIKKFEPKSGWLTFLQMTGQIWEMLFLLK

Bcl-2-related protein A1 [10] = target: T3, Bcl-2-related protein A1; assay: Bfl-1 binding inhibitors, SAR follow-up, biochemical, fluorescence polarization (AID 1070)
[11] = target: Sphingosine 1-phosphate receptor 2 (Homo sapiens, UniProt O95136); assay: Dose Response Cell Based Assay for Antagonists of the S1P2 Receptor. [Related pubchem assays: 856, 736 ]; assay type: functional
[12] = microbe, parasite or virus in culture; assay type: functional; conditions: Mycobacterium tuberculosis
[13] = target: Aryl hydrocarbon receptor (Homo sapiens, UniProt P35869); assay: Luminescence-based cell-based high throughput dose response assay for activators of the Aryl Hydrocarbon Receptor (AHR). [Related pubchem assays: 2796 (Primary screen (AHR activators in singlicate)), 2845 (Confirmation screen (AHR activators in triplicate)), 434939 (Counterscreen (PXR activators in triplicate)), 2804 (Summary (AHR activators))]; assay type: ADME
cells = assay type: functional

Sequence of Sphingosine 1-phosphate receptor 2 (O95136 whole entry): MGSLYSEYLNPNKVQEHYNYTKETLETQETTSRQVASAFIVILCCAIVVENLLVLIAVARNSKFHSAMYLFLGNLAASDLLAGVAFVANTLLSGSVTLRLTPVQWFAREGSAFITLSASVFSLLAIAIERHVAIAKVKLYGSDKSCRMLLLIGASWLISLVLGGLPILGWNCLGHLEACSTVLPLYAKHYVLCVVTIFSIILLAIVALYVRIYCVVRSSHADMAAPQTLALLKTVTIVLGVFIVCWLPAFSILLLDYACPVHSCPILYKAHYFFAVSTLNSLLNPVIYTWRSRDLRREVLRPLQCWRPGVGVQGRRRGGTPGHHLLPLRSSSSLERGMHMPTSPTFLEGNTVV
Sequence of Cytochrome P450 2C19 (P33261 whole entry): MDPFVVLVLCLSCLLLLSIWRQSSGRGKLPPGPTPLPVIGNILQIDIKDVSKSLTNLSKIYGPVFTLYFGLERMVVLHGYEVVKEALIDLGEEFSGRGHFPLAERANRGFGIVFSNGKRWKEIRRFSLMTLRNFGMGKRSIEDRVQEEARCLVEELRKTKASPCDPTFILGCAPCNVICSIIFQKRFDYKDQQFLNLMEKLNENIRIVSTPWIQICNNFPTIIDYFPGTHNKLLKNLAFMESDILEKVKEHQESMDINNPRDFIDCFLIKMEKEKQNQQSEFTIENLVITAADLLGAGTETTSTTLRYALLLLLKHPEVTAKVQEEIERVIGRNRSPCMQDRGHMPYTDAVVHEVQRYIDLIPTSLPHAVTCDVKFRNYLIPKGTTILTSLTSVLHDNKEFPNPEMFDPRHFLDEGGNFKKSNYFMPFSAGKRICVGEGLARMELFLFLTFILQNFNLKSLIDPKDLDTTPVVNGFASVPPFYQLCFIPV
Sequence of Peroxisome proliferator-activated receptor gamma/Nuclear receptor corepressor 2 (P37231 whole entry): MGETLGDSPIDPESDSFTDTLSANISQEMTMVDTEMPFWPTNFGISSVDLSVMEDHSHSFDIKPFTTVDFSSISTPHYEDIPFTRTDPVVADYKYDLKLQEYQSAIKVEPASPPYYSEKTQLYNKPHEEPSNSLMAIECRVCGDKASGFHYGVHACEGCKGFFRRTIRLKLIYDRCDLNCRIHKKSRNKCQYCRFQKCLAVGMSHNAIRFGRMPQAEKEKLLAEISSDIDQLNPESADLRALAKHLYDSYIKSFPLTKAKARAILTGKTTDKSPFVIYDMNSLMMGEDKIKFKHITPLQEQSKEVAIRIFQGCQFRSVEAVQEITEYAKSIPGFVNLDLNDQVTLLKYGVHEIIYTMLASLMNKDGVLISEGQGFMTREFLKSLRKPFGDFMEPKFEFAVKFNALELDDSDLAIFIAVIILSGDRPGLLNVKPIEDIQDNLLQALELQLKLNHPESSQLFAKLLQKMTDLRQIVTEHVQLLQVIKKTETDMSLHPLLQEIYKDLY
Sequence of Peroxisome proliferator-activated receptor gamma/Nuclear receptor corepressor 2 (Q9Y618 whole entry): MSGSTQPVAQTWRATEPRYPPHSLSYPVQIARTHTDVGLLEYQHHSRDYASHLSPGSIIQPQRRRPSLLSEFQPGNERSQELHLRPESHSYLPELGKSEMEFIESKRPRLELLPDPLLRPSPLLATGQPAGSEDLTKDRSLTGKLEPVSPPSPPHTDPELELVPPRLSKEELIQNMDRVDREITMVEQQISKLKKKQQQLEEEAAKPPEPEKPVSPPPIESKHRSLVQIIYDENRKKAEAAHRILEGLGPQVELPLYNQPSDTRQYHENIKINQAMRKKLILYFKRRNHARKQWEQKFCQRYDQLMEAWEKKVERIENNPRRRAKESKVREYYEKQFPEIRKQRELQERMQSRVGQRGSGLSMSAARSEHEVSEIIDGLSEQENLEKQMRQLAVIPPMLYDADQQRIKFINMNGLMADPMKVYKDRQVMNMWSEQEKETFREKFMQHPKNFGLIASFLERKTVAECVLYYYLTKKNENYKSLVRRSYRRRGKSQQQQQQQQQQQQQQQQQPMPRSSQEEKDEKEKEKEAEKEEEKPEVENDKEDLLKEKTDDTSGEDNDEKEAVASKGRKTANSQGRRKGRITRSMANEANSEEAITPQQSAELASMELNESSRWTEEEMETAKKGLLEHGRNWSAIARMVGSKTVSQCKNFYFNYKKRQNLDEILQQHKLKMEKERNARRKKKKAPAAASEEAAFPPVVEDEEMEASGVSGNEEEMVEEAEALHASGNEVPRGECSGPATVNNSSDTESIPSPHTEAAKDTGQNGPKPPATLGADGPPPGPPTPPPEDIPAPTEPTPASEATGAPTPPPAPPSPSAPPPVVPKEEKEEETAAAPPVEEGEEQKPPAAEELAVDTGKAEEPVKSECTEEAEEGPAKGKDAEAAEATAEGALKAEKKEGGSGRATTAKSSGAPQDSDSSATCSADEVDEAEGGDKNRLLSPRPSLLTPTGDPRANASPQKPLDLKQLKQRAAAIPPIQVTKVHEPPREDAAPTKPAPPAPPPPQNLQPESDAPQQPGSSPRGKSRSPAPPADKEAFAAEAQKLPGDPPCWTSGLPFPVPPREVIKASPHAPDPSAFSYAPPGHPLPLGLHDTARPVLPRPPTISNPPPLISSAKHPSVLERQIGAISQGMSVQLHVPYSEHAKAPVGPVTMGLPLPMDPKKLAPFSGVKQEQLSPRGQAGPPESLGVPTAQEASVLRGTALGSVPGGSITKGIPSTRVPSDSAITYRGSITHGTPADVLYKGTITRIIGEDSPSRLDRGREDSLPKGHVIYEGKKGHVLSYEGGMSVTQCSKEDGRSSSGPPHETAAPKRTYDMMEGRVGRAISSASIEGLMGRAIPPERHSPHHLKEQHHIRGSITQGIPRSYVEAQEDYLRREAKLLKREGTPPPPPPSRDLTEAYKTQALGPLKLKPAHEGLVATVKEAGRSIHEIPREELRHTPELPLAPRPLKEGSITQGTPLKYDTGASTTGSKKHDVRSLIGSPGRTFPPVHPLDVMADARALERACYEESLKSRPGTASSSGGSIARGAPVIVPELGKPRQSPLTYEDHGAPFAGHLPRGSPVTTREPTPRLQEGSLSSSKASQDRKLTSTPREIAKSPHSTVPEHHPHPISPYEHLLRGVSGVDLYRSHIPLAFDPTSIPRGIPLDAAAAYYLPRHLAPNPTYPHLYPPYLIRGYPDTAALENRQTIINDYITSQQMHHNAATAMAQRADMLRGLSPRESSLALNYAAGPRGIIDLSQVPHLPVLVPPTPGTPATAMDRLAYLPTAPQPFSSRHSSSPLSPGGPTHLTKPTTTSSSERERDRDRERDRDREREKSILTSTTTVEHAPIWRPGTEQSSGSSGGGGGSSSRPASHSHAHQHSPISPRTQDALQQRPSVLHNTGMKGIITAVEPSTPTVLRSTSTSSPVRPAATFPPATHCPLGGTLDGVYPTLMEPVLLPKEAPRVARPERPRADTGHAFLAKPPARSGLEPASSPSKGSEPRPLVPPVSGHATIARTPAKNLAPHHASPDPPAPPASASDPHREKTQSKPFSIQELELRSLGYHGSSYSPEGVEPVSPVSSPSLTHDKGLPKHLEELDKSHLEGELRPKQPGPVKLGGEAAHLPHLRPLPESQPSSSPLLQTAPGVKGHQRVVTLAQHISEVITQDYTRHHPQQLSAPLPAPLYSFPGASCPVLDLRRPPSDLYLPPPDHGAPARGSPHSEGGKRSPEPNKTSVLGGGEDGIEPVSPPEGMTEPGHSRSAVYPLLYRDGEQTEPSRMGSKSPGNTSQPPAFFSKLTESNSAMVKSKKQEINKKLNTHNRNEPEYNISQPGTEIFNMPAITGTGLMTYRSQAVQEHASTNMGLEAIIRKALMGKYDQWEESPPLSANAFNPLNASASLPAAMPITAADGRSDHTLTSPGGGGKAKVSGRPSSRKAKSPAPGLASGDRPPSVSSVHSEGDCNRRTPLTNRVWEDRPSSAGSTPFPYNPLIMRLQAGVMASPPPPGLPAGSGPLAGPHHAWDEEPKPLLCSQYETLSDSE
Sequence of Aryl hydrocarbon receptor (P35869 whole entry): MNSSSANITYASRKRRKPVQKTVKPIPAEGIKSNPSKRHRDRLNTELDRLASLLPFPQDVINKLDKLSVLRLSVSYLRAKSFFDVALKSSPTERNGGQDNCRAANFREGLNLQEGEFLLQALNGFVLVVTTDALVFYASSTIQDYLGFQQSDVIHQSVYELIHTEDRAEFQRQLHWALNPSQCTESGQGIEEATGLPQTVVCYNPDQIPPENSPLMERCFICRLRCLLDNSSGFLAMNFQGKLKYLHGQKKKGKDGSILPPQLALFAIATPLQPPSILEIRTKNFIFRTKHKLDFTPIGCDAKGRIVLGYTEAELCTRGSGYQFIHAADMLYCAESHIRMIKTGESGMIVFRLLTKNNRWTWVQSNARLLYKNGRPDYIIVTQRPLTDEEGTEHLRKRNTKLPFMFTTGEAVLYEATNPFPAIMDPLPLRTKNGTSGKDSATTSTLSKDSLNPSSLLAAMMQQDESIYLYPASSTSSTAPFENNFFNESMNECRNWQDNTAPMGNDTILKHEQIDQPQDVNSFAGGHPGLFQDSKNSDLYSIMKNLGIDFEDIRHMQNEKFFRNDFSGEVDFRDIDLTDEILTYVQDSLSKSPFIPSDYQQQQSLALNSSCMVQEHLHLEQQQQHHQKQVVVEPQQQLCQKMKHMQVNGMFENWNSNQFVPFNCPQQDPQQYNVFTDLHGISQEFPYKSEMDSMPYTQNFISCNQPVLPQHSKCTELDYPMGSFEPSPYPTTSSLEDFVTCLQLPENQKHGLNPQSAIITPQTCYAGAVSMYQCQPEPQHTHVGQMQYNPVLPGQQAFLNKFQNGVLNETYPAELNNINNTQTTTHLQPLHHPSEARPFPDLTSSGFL

With `CCN(CC)CCNC(=O)C1C(C)=NC(/C=C2\C(=O)Nc3ccc(F)cc32)=C1C` (stereo unspecified) the IC50 [1] was > 10 µM (inactive), the IC50 [2] was > 33.3 µM (inactive) and the IC50 [3] was > 10 µM (inactive).
With `COc1ccc(/N=C/C2=C(O)c3ccccc3CC2)cc1` the EC50 (Protein RecA) was 18.6 µM (active), the IC50 [4] was > 100 µM (active) and the IC50 [5] was < 0.391 µM (not active).
In the case of `Cc1nc2c(c3c1[nH]c1ccccc13)C(O)CC(C)(C)C2` (stereo unspecified), the IC50 [6] is reported as 21.9 µM (active).
For `CS(=O)(=O)N(CC(=O)NC1CCCCC1)Cc1ccc(F)cc1`, the IC50 [7] was > 39.8 µM (not active) and the IC50 [8] was > 39.8 µM (not active).
With `CC1CCC2C(=O)N3C(CCC(C)[C@@H]3c3cccc(N4CCOCC4)c3)C(=O)N2C1c1cccc(Br)c1` (stereo partly specified) the AC50 (Cytochrome P450 2C19) was 7.94 µM (inconclusive).
In the case of `Clc1ccc(-n2nnc(-c3cc4ccccc4nc3Cl)n2)cc1Cl`, the IC50 (Bcl-2-related protein A1 [9]) is reported as > 100 µM (not active) and the IC50 (Bcl-2-related protein A1 [10]) is reported as > 100 µM (not active).
For `NC(=O)c1sc2cc(C(F)(F)F)cnc2c1-c1cccs1`, the IC50 [11] was > 30 µM (not active).
With `O=[N+]([O-])c1cnc(Nc2ccc(Cl)cn2)c([N+](=O)[O-])c1` the CC50 [12] was > 40 µM (active), the EC50 [13] was 1.29 µM (active) and the IC50 (cells) was 4.17 µM (active).
